Drawing on PubChem BioAssay (NCI), this text covers TGI and GI50 for 25 compounds.

SMILES strings stand for the structures. Values joined by “and” are separate entries in the source; they are usually repeats but may differ in a detail not shown here. Identical values can stand only once.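 Growth conditions: 96-well plates. Treatment: test compound, 48 hours, 5 concentrations. Analysis: linear interpolation between bracketing concentrations; unreached endpoints set to highest concentration. GI50 marks 50% less growth. TGI marks complete inhibition of growth.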 Where a SMILES comes first, the peptide text is derived from it. [ ]: non-standard residue; d: D form. The star is where a group is joined. ξ: configuration not given here. ξF = NC(Cc1ccccc1)C(=O)O; Cbz = O=C(OCc1ccccc1)*; Aib = CC(C)(N)C(=O)O Where only a bound is given, the exact number is not on record here.

Test systems include EKVX NSCLC; HL-60(TB) leukemia; CCRF-CEM leukemia; A498 renal; SK-MEL-28 melanoma; 786-0 renal; PC-3 prostate; HS 578T breast; DU-145 prostate; BT-549 breast.
Assay in all cases: growth of human tumour cells (NCI), 48 h

`CN(C)CCNC(=O)c1cc(Cl)cc2cc3ccccc3nc12`: the TGI with EKVX NSCLC worked out at 4.81 µM; in the experiment on HL-60(TB) leukemia it was 2.62 µM; in the experiment with CCRF-CEM leukemia, 3.28 µM; with A498 renal, 2.2 µM; in the experiment on SK-MEL-28 melanoma, 3.76 µM.
Turning to `CCOC(=O)CCC(C(=O)OCC)n1nc2ccc(Nc3c(C)[n+]([O-])c4cc(F)c(OCC)cc4[n+]3[O-])cc2n1` (stereo not given), the TGI in the experiment with EKVX NSCLC is 98.1 µM; with HL-60(TB) leukemia it was more than 100 µM; in the experiment on 786-0 renal, 71.5 µM; in the experiment on CCRF-CEM leukemia, more than 100 µM; in the experiment on PC-3 prostate, more than 100 µM; with HS 578T breast, 90.7 µM. In addition, the TGI in the experiment with A498 renal, in the experiment on DU-145 prostate and with BT-549 breast was more than 100 µM each time.
For the compound `OCC(O)CNc1ncnc2ccccc12` (stereo not given), the TGI in the experiment on EKVX NSCLC, with HL-60(TB) leukemia, with 786-0 renal, with CCRF-CEM leukemia, with PC-3 prostate and in the experiment with HS 578T breast was more than 100 µM throughout. Moreover, the TGI with A498 renal, in the experiment on SK-MEL-28 melanoma, in the experiment on DU-145 prostate and in the experiment with BT-549 breast was more than 100 µM in each case.
As to `O=C1c2cccnc2C(=O)c2c1c(C(=O)OCCN1CCCCC1)c1ccccn21`, the GI50 in the experiment with EKVX NSCLC is 851 nM; in the experiment on HL-60(TB) leukemia, 363 nM; with CCRF-CEM leukemia, 294 nM; in the experiment with PC-3 prostate, 160 nM; in the experiment with HS 578T breast it was 72.3 nM; in the experiment on A498 renal, 0.065 µM. Besides, the GI50 in the experiment on SK-MEL-28 melanoma was 0.21 µM; in the experiment with DU-145 prostate it was 18.9 nM; in the experiment with BT-549 breast it was 152 nM. Besides, the TGI in the experiment on EKVX NSCLC is 7.52 µM; with HL-60(TB) leukemia it was 3.24 µM; in the experiment with CCRF-CEM leukemia, 5 µM; with PC-3 prostate, 9.59 µM; in the experiment with HS 578T breast, 0.376 µM; with A498 renal it was 13.1 µM. The TGI is 2.19 µM with SK-MEL-28 melanoma, 0.714 µM with DU-145 prostate and 2.16 µM in the experiment with BT-549 breast.
As to `O=C(CSCC(=O)N/N=C/c1ccccc1)N/N=C\c1ccccc1`, the TGI in the experiment with EKVX NSCLC, in the experiment on 786-0 renal, with CCRF-CEM leukemia, in the experiment with PC-3 prostate, in the experiment with HS 578T breast and in the experiment with SK-MEL-28 melanoma was more than 100 µM each time. Besides, the figures for the TGI in the experiment on DU-145 prostate and in the experiment with BT-549 breast were more than 100 µM and 18.9 µM, respectively.
Consider `CC1(CO)COS(=O)OC1` (stereo not given), for which the TGI with CCRF-CEM leukemia, with PC-3 prostate, in the experiment on HS 578T breast, with A498 renal, with SK-MEL-28 melanoma and in the experiment on DU-145 prostate was more than 100 µM in each case.
As for `CC(C)(C)OC(=O)N1C(OP(=O)(Oc2ccccc2)Oc2ccccc2)=CSc2ccccc21`, the TGI in the experiment with EKVX NSCLC is more than 100 µM; with HL-60(TB) leukemia it was 43.1 µM; in the experiment on 786-0 renal, more than 100 µM; with PC-3 prostate, more than 100 µM; in the experiment on HS 578T breast, more than 100 µM; in the experiment on SK-MEL-28 melanoma, more than 100 µM. Besides, the TGI with DU-145 prostate and in the experiment with BT-549 breast was more than 100 µM throughout.
In the case of `OC[C@H]1NC[C@@H](O)[C@@H](O)[C@H]1O`, the TGI in the experiment on CCRF-CEM leukemia, with PC-3 prostate, in the experiment on HS 578T breast, in the experiment with A498 renal and in the experiment on BT-549 breast was more than 100 µM in each case.
Take `CCOC(=O)CNC(=O)C(Cc1ccccc1)NC(=O)C(C)(C)NC(=O)OCc1ccccc1` (stereo not given) (Cbz-[Aib]-[ξF]-Gly-OEt): the TGI was more than 100 µM in the experiment on EKVX NSCLC; more than 100 µM with HL-60(TB) leukemia; more than 100 µM in the experiment on CCRF-CEM leukemia; more than 100 µM in the experiment on PC-3 prostate; more than 100 µM in the experiment with A498 renal; 33.2 µM with SK-MEL-28 melanoma. The compound also showed a TGI in the experiment with DU-145 prostate of more than 100 µM.
On to `CC(C)CCCC(C)[C@H]1CC[C@H]2n3c(nc4ccccc43)CCC[C@]12C` (stereo not given in full), for which the TGI in the experiment on HL-60(TB) leukemia is 32.3 µM; with 786-0 renal it was 37.3 µM; in the experiment on CCRF-CEM leukemia, 49 µM; in the experiment with PC-3 prostate it was 42.9 µM; in the experiment on HS 578T breast, 63.8 µM; with A498 renal, 28 µM. Moreover, the TGI with SK-MEL-28 melanoma is 34.3 µM; with DU-145 prostate it was 58.5 µM; in the experiment on BT-549 breast, 35.7 µM.
For `Nc1[nH]c(=S)nc2nc3c(c(-c4ccccc4)c12)CCCC3`, the TGI in the experiment with EKVX NSCLC, in the experiment on HL-60(TB) leukemia, with PC-3 prostate, with HS 578T breast, in the experiment with DU-145 prostate and in the experiment on BT-549 breast was more than 100 µM in each case.
For `CN(Cc1cn(O)c2nc(=N)nc(N)c-2n1)c1ccc(C(=O)NC23CC4CC(CC(C4)C2)C3)cc1`, the TGI is more than 100 µM with EKVX NSCLC; more than 100 µM in the experiment on HL-60(TB) leukemia; more than 100 µM with 786-0 renal; more than 100 µM in the experiment with CCRF-CEM leukemia; more than 100 µM in the experiment with PC-3 prostate; 40.4 µM in the experiment with HS 578T breast. In addition, the TGI was 57.1 µM with A498 renal, more than 100 µM in the experiment with SK-MEL-28 melanoma, more than 100 µM in the experiment with DU-145 prostate and 79.1 µM in the experiment with BT-549 breast.
As for `COc1ccccc1CC(C)N` (stereo not given), the TGI with EKVX NSCLC, with HL-60(TB) leukemia, with 786-0 renal, in the experiment with CCRF-CEM leukemia, with A498 renal and in the experiment with SK-MEL-28 melanoma was more than 100 µM in each case.
For the compound `NC(CCOCCP(=O)(O)CCC1C=CC=CC1)C(=O)O` (stereo not given), the TGI with EKVX NSCLC, in the experiment on HL-60(TB) leukemia, in the experiment with CCRF-CEM leukemia, in the experiment on PC-3 prostate, in the experiment with HS 578T breast and with SK-MEL-28 melanoma was more than 100 µM throughout. In addition, the TGI in the experiment with DU-145 prostate and in the experiment with BT-549 breast was more than 100 µM in each case.
For `S=c1c2[nH]cnc2ncn1CCSC1=NC=NC2=NC=NC21` (stereo not given), the TGI in the experiment with EKVX NSCLC, with HL-60(TB) leukemia, with 786-0 renal, in the experiment on CCRF-CEM leukemia, in the experiment with PC-3 prostate and with HS 578T breast was more than 100 µM in each case. Further, the TGI in the experiment on A498 renal, with SK-MEL-28 melanoma, in the experiment with DU-145 prostate and in the experiment on BT-549 breast was more than 100 µM each time.
Turning to `Nc1ccc(O)c2c1C(=O)c1c(N)ccc(O)c1C2=O`, the TGI with EKVX NSCLC, in the experiment with HL-60(TB) leukemia, with 786-0 renal, in the experiment with CCRF-CEM leukemia, in the experiment with A498 renal and with SK-MEL-28 melanoma was more than 100 µM each time.
As to `CN(CC(=O)O)Cc1c(O)c(Cl)cc(Cl)c1Cl`, the TGI with EKVX NSCLC is more than 100 µM; with HL-60(TB) leukemia, 44.6 µM; in the experiment on 786-0 renal, more than 100 µM; with CCRF-CEM leukemia, 50.4 µM; in the experiment with PC-3 prostate it was more than 100 µM; in the experiment on HS 578T breast, more than 100 µM. Also, the TGI in the experiment with A498 renal is more than 100 µM; in the experiment with SK-MEL-28 melanoma, 97.4 µM; in the experiment with DU-145 prostate it was more than 100 µM; with BT-549 breast, more than 100 µM.
Turning to `Cc1cc2c(c(O)c1-c1c(C)cc(O)c3c1C(=O)C=CC3=O)C(=O)C=CC2=O`, the TGI was 19 µM with PC-3 prostate; 32.9 µM in the experiment on HS 578T breast; 18.9 µM in the experiment with A498 renal; 4.73 µM in the experiment with DU-145 prostate; more than 25.5 µM with BT-549 breast.
As for `CCN(CC)CC[n+]1ccc2c(C)c3[nH]c4ccc(O)cc4c3c(C)c2c1`, the GI50 is 2030 nM in the experiment on EKVX NSCLC, 808 nM in the experiment with CCRF-CEM leukemia, 20.5 µM in the experiment on A498 renal and 9.07 µM in the experiment with SK-MEL-28 melanoma. The TGI in the experiment on EKVX NSCLC was 38.8 µM and 14.8 µM; in the experiment with HL-60(TB) leukemia, 33.2 µM and 33.1 µM; in the experiment with 786-0 renal, more than 40.7 µM; in the experiment with CCRF-CEM leukemia, 33 µM and 23.1 µM; in the experiment on PC-3 prostate, 31.8 µM; with HS 578T breast, 15.8 µM. Also, the TGI with A498 renal is 74.6 µM and 84.3 µM; with SK-MEL-28 melanoma, 21.3 µM and 44.8 µM; in the experiment with DU-145 prostate, 14.2 µM; in the experiment with BT-549 breast, 34.3 µM.
Turning to `O=C(NC(Cc1ccc(Br)cc1)C(=O)O)c1ccc(I)cc1` (stereo not given), the TGI in the experiment with EKVX NSCLC, in the experiment with HL-60(TB) leukemia, in the experiment with CCRF-CEM leukemia, in the experiment on A498 renal and in the experiment on SK-MEL-28 melanoma was more than 100 µM in each case.
On to `CSc1nc(CO)c(CO)n1C`, for which the TGI in the experiment on EKVX NSCLC, with HL-60(TB) leukemia, in the experiment with CCRF-CEM leukemia, in the experiment on A498 renal and in the experiment on SK-MEL-28 melanoma was more than 100 µM throughout.
Consider `CNC1Cc2c[nH]c3cccc(c23)C12C=C(C)C(=O)O2` (stereo not given), for which the TGI in the experiment with EKVX NSCLC, with HL-60(TB) leukemia, in the experiment on 786-0 renal, in the experiment on CCRF-CEM leukemia, in the experiment on PC-3 prostate and in the experiment with HS 578T breast was more than 100 µM in each case. The TGI in the experiment on A498 renal, with SK-MEL-28 melanoma, with DU-145 prostate and in the experiment on BT-549 breast was more than 100 µM in each case.
Take `CC1C(=O)CC(c2cccs2)N(N=O)C1c1cccs1` (stereo not given): the TGI in the experiment with EKVX NSCLC is more than 100 µM; in the experiment on HL-60(TB) leukemia, more than 72.2 µM; with CCRF-CEM leukemia, more than 100 µM; in the experiment on A498 renal, more than 70.9 µM; with SK-MEL-28 melanoma it was more than 100 µM.
For `Clc1cc(Cl)c2cc3cccc[n+]3cc2c1Cl`, the TGI worked out at 30.8 µM in the experiment with EKVX NSCLC; 29.7 µM in the experiment on HL-60(TB) leukemia; 46.7 µM in the experiment on 786-0 renal; 37.2 µM in the experiment with CCRF-CEM leukemia; 29.2 µM in the experiment with PC-3 prostate; 38.7 µM in the experiment with HS 578T breast. The TGI with A498 renal is 34 µM; in the experiment with SK-MEL-28 melanoma, 29.9 µM; with DU-145 prostate it was 34 µM; with BT-549 breast, 23.3 µM.
As to `CCCCCCCCCCCCCC1=C(O)C(=O)C(CC2=C(O)C(=O)C(CCCCCCCCCCCCC)=C(O)C2=O)=C(O)C1=O`, the TGI in the experiment with EKVX NSCLC, in the experiment on HL-60(TB) leukemia, with 786-0 renal, in the experiment with CCRF-CEM leukemia, with PC-3 prostate and in the experiment with HS 578T breast was more than 100 µM throughout. In addition, the TGI with A498 renal, in the experiment with SK-MEL-28 melanoma, in the experiment on DU-145 prostate and in the experiment with BT-549 breast was more than 100 µM throughout.
